In the experiment the target is T1, P2X1 receptor (Homo sapiens, UniProt P51575).
T1 construct: made in house
T1 sequence (P51575 1-399): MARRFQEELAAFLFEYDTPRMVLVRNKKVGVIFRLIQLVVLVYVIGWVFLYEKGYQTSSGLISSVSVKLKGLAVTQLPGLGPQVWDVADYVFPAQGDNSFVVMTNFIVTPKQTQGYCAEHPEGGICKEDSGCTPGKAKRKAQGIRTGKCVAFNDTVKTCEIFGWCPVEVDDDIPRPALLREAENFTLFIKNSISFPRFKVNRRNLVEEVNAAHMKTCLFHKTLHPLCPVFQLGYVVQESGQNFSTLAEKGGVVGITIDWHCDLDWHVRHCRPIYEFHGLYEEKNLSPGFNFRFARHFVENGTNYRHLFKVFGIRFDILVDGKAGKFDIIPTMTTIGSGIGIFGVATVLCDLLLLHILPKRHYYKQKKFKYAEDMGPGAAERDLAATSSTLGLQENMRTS
Description: Single molecule stochastic binding of ATP* to purified P2X1 reconstituted in lipid bilayers. Conditions: corrected for photophysical blinking and photochemical bleach; compared with bulk measurements. The source says: Plasmids: A FLAG-tagged human P2X1 subunit construct was generated by fusion PCR, and cloned together with an IRES-IFP1.4 fusion PCR product as a three-point ligation into the Mlul/Spel digested pLV-T backbone (see Shu, X.; Royant, A.; Lin, M. Z.; Aguilera, T. A.; Lev-Ram, V.; Steinbach, P. A.; Tsien, R. Y. Science 2009, 324, 804; and Marquis, J.; Kampfer, S. S.; Angehrn, L.; Schumperli, D. Gene therapy 2009, 16, 70.)
Protein Purification: HEK 293T cells stably expressing the FLAG-P2X1 receptor were grown as monolayers in T300 plates. At a density of 80%, cells were washed once with phosphate buffered saline (PBS (mM); 0.1 NaCl, 2.0 Na2HPO4, 0.54 KCl, 0.4 KH2PO4, pH 7.4), mechanically detached into PBS, collected by centrifugation at 500 g for 5 min, snap frozen in liquid N2 and stored at −70° C. until needed. After defrosting, cells were diluted with 2 mL Tris-EDTA (50 mM Tris-HCl, 0.5 mM EDTA, pH 7.5) containing Halt Protease Inhibitor (Pierce, Thermo Scientific, IL, USA) and homogenized with a 5 mL cell-douncer, followed by trituration through 21-gauge and 27-gauge needles. […]

We go through 1 substance from patent US12259539B2, “Optical microscope” (SMI DRUG DISCOVERY LIMITED, priority 2019, dated 2025).

As for “2′/3′-O-(2-Aminoethyl-carbamoyl)-Adenosine-5′-triphosphate, labelled with ATTO-700 [ATP*]”, the “binding coefficients from single receptor binding data” value is on record as “statistically identical to overall bulk measurements”.
